Assay [1] deals with IFN production by activated immune cells (PBMC). Kind of assay: IFN production by R848-activated PBMC from healthy donors, STING-37 reporter cell line. The conditions noted are these: different concentrations, R848, STING-37 reporter, FIG. 1. The format is cell-based, human. As for the experimental part: 1) The blood from healthy donors was obtained from two sources. Either from “Etablissement Français du Sang” (convention #07/CABANEL/106), Paris, France or from the Apheresis and Blood Donation Unit at the Institute of Transfusion Medicine and Immunogenetics (IKT), Ulm, Germany after being approved by the Institutional Review Board at Ulm University.
(§1) In vitro experiments were performed using human peripheral blood mononuclear cells (PBMCs) isolated by density centrifugation from peripheral blood leukocyte separation medium (Cambrex, Gaithersburg, Md.).
(§2) PBMCs were cultured in RPMI 1640 (Invitrogen, Gaithersburg, Md.) (R10) containing 10% heat-inactivated fetal bovine serum, 100 U/mL Penicilium and 100 μg/mL Streptomycin (1% Pen-Strep) and 1 mM glutamine (Hyclone, Logan, Utah).
1) The PBMCs used herein were prepared as described in part A “immune cells preparation”, section 1) above. PBMCs were seeded at 2.10^6/mL. […]
(§3) 1) To quantify the secretion of functional IFN, a biological assay based on a stable cell line where luciferase reporter gene is controlled by five Interferon-Stimulated Response Elements (STING37 cell line) was used. […] After 24 h of culture, luciferase activity was determined by adding 50 μL of Bright-Glo reagents (Promega) to culture wells and measuring bioluminescence with a luminometer.

For assay [2], the system named is IFN production by activated immune cells (PBMC) from lupus patients. Kind of assay: IFN production by R848-activated PBMC from lupus patients, STING-37 reporter cell line. It is filed as cell-based, human. To be noted: 10 μM, PBMC from three SLE patients, FIG. 2. On the procedure: (§4) Material from Juvenile Dermatomyositis and Lupus patients were obtained from Necker Hospital, Paris, France or from Imagine Institute, Paris, France. The study was approved by the Conité des Protection des Personnes (ID-RCB/EUDRACT: 2014-A01017-40 and 2018-A01358-47) in France.
as §1, §2
1) The PBMCs used herein were prepared as described in part A “immune cells preparation”, section 1) above. PBMCs were seeded at 2.10^6/mL. […] Cells were then stimulated with the TLR7/8 agonist resiquimod—R848 (Invivogen) at 5 μg/mL. […]
as §3

Assay [3] concerns TNFα production by monocytes (CD14+ cells). Description: TNFα production by monocytes from juvenile dermatomyositis patients, intracellular staining by flow cytometry. The format is cell-based, human. The conditions noted are these: PBMCs from 2 juvenile dermatomyositis patients; R848 overnight; FIG. 3. On the procedure:
as §4, §1
(§5) 1) The PBMCs used herein were prepared as described in part A “immune cells preparation”, section 1) above. PBMCs were seeded at 2.10^6/mL. […] Cells were then stimulated with the TLR7/8 agonist resiquimod—R848 (Invivogen) at 5 μg/mL. When stated, AMD (20 μM) (Sigma-Aldrich, MO, USA) was added to the cells 1 h before incubation with example 1.
R848-stimulated PBMCs were washed in PBS and then incubated with a viability stain (Zombie-Aqua, Biolegend) for 30 min at 4° C. After washing, the cells were resuspended in PBS containing 2% FCS and 2 mM EDTA and stained with the extracellular mix using APC-anti-BDCA4 (clone 12C2), FITC-anti-CD123 (clone 6H6), PerCP.cy5.5-anti-CD56 (clone 5.1H11), BV421-anti-HLADR (clone L243), PE.cy7-anti-CD19 (clone 4G7), APC-cy.7-anti-CD14 (clone M5E2) all from Biolegend and used at 1/200 and V500-anti-CD3 (BD Bioscience, clone SP34-2, 1/200). […]
For orientation: Flow cytometry measures light scatter and fluorescence of single cells or particles in a stream.

For assay [4] the test system is unchanged. Description: Requirement of CXCR4 (siRNA knockdown or AMD3100) for the effect on TNFα production by monocytes from healthy donors. The format is cell-based, human. On the procedure:
Monocytes were purified from PBMCs by positive selection with the CD14 microbeads (Miltenyi Biotec) and MACS column.
as §5
Isolated monocytes were seeded at 10^5 cells/100 μL in 96-well plates and incubated at 37° C. Cyclophilin B (control) and CXCR4 small interfering RNA (siRNA) (Smart Pool, Dharmarcon) was diluted in DOTAP (Roche Applied Sciences). The mix was gently mixed and incubated at room temperature for 15 minutes. After incubation, the mix was added to cells in culture at a final concentration of 160 nM. Finally, cells were incubated at 37° C. for 24 hours before stimulation.
R848-stimulated PBMCs were washed in PBS and then incubated with a viability stain (Zombie-Aqua, Biolegend) for 30 min at 4° C. After washing, the cells were resuspended in PBS containing 2% FCS and 2 mM EDTA and stained with the extracellular mix using APC-anti-BDCA4 (clone 12C2), FITC-anti-CD123 (clone 6H6), PerCP.cy5.5-anti-CD56 (clone 5.1H11), BV421-anti-HLADR (clone L243), PE.cy7-anti-CD19 (clone 4G7), APC-cy.7-anti-CD14 (clone M5E2) all from Biolegend and used at 1/200 and V500-anti-CD3 (BD Bioscience, clone SP34-2, 1/200). For the TNFα intracellular staining a Fixation/Permeabilization Solution Kit (BD Cytofix/Cytoperm) was used according to the manufacturer's protocol. Briefly, the cells were fixed for 10 min at 4° C. with 100 μL of the Fixation/Permeabilization solution then washed and stained in 100 μL of the BD Perm/Wash Buffer containing TNFα-APC (Miltenyi, 1/500) antibody for 1 h at 4° C. Data acquisition was performed on a Canto II flow cytometer using Diva software (BD Biosciences, San Jose, Calif.). FlowJo software (Treestar, Ashland, Oreg.) was used to analyze data.

Assay [5] concerns the target T1, human CXCR4 (hCXCR4) receptor (Homo sapiens, UniProt P61073).
T1 construct: expressed in transfected cells; host or cells: HEK-293 T cells, transient co-transfection with polyethylenimine
Kind of assay: BRET assay of antagonist activity on the CXCR4-CXCL12 signaling pathway in transfected HEK-293 T cells. It is filed as cell-based. The conditions noted are these: Gαi1, Gαi2, Gαi3, GαoB or Gαz, EC80 CXCL12, FIG. 6. On the procedure:
Examples of the present invention were tested for their antagonist activity on human CXCR4 (hCXCR4) receptor transiently over-expressed in HEK-293 T cells. Compounds exert antagonist activity if they decrease the action of CXCL12 on the receptor.
HEK-293 T cells are maintained in Dulbecco's Modified Eagle's Medium supplemented with 10% Foetal Calf Serum, 1% Penicillin/Streptomycin at 37° C./5% CO2. […] After transfection, cells are cultured for 48 h at 37° C./5% CO2.
On the day of the assay, cells are detached using trypsin 0.05%, resuspended in assay buffer (1.8 mM CaCl2, 1 mM MgCl2, 2.7 mM KCl, 137 mM NaCl, 0.4 mM NaH2PO4, 5.5 mM D-Glucose, 11.9 mM NaHCO3, 25 mM Hepes) and seeded in 384 well plate at a density of 20,000 cells per well.
Cells are first incubated for 10 minutes with the compound alone. Then, cells are stimulated by an EC80 CXCL12 concentration for additional 10 minutes and luminescence is recorded. […] Antagonist activity is evaluated in comparison to basal signals evoked by EC80 CXCL12 alone.
For IC50 determination, a dose-response test is performed using 20 concentrations (ranging over 6 logs) of each compound. Dose-response curves are fitted using the sigmoidal dose-response (variable slope) analysis in GraphPad Prism software (GraphPad Software) and IC50 of antagonist activity is calculated. […]
A general note: Bioluminescence resonance energy transfer reports proximity on the nanometre scale.

In assay [6] the test system is IFN production by activated PBMCs. Description: IFN production by R848-activated PBMCs from healthy donors, twINNE reporter cell line. The format is cell-based, human. The conditions noted are these: means of two results over 2 healthy donors, R848 5 μg/mL, IT1t: mean over all experiments, read-out: IC50 of anti-inflammatory activity (IFN production). The method, boiled down: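 Human PBMCs (4.10^6/mL, RPMI/10% FBS, 37° C) stimulated with R848 at 5 μg/mL; supernatants collected after 24 h. Functional IFN measured on twINNE cells (ISRE-driven luciferase reporter) after 24 h culture by bioluminescence; IC50 from variable-slope dose-response fits.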

In the next assay the test system is IL-1β. Kind of assay: Cytokine production by R848-activated PBMCs, LEGENDplex Human Inflammation panel 1: IL-1β. The conditions noted are these: PBMCs from 2 healthy donors, R848 overnight, read-out: IC50 (μM) 1L-1β. It is filed as cell-based. As for the experimental part:
(§6) 2) The PBMCs used herein were prepared as described in part A “immune cells preparation”, section 2) above. PBMCs were seeded at 4.10^6/mL. […] Cells were then stimulated with the TLR7/8 agonist resiquimod—R848 (Sigma-Aldrich, MO, USA) at 5 μg/mL.
(§7) Cytokine expression levels were assessed using LEGENDplex Human inflammation panel 1 Kit (BioLegend, California, USA), which is a bead-based multiplex assay, using fluorescence-encoded beads. […] First, supernatants of R848-stimulated PBMCs were harvested after 24 h of stimulation and frozen at −20° C. for storage. Supernatants were dispensed into a 96-well V-bottom plate. Protocol pursued as per manufacturer recommendations (Manual for BioLegend LEGENDplex, Multi-Analyte Flow Assay Kit, Human Inflammation Panel 1, version 750000393_R01).

The next assay concerns IFN-γ. Kind of assay: Cytokine production by R848-activated PBMCs, LEGENDplex Human Inflammation panel 1: IFN-γ. The format is cell-based. To be noted: PBMCs from 2 healthy donors, R848 overnight. On the procedure:
as §6, §7

For a further assay, the system named is TNF-α. Kind of assay: Cytokine production by R848-activated PBMCs, LEGENDplex Human Inflammation panel 1: TNF-α. The format is cell-based. To be noted: PBMCs from 2 healthy donors, R848 overnight. On the procedure:
as §6, §7

The subject of the next assay is IL-10. Kind of assay: Cytokine production by R848-activated PBMCs, LEGENDplex Human Inflammation panel 1: IL-10. It is filed as cell-based. The conditions noted are these: PBMCs from 2 healthy donors, R848 overnight. As for the experimental part: as §6, §7
For the next assay, the system named is IL-12p70. Kind of assay: Cytokine production by R848-activated PBMCs, LEGENDplex Human Inflammation panel 1: IL-12p70. It is filed as cell-based. To be noted: PBMCs from 2 healthy donors, R848 overnight. As for the experimental part:
as §6, §7

A further assay has as its system IL-18. Description: Cytokine production by R848-activated PBMCs, LEGENDplex Human Inflammation panel 1: IL-18. To be noted: PBMCs from 2 healthy donors, R848 overnight. It is filed as cell-based. On the procedure:
as §6, §7

The test system of the next assay is IL-23. Kind of assay: Cytokine production by R848-activated PBMCs, LEGENDplex Human Inflammation panel 1: IL-23. The format is cell-based. The conditions noted are these: PBMCs from 2 healthy donors, R848 overnight. On the procedure: as §6, §7
Assay [7] relates to MCP-1, IL-6, IL-8 and IL-33. Kind of assay: Cytokine production by R848-activated PBMCs, LEGENDplex: other inflammatory cytokines. The format is cell-based, human. To be noted: PBMCs from two healthy donors; R848 5 μg/mL. On the procedure: as §6, §7

Each structure is given as a SMILES string. pIC50: −log10 of the molar value. Structures can show the parent of a compound that is named as a salt.

T1 sequence (P61073 whole entry): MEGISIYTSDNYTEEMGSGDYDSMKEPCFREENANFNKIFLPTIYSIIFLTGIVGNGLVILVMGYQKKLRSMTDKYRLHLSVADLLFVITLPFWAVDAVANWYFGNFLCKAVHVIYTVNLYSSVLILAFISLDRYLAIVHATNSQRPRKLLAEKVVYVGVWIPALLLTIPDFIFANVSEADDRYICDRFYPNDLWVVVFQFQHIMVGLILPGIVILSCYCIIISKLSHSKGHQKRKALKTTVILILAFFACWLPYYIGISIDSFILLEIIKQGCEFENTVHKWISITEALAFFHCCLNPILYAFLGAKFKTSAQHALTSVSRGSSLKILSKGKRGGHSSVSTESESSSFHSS

On to `CC1(C)CN2C(CSC3=NC4CCCCC4N3)=CSC2=N1` (stereo not drawn) [Example 1, 3-(((3a,4,5,6,7,7a-hexahydro-1H-benzo[d]imidazol-2-yl)thio)methyl)-6,6-dimethyl-5,6-dihydroimidazo[2,1-b]thiazole dihydrochloride], for which the “reduction of IFN production by activated PBMCs” value in assay [1] stood at 100%. The “IFN production by activated PBMCs” value in [2] is recorded as “level similar to the one of unstimulated negative controls”. In [3], the “TNF-α production in CD14+ monocytes” value was “strongly inhibited”. Further, the “TNFα production by activated monocytes in the presence of the example after pre-incubation with AMD3100” value in [4] (AMD3100 20 μM 1 h, example 1 5 μM or example 2 1 μM, R848, FIG. 5B) is “restored”. The “TNFα production by activated monocytes in the presence of the example after CXCR4 siRNA” value in [4] (siCXCR4 160 nM 24 h, example 1 5 μM, R848, FIG. 5A) was “restored”. Also, in assay [5], the “antagonist activity: recruitment of G proteins induced by the hCXCR4-CXCL12 interaction” value is reported as “significantly lower than IT1t”.

Turning to `CC1(C)CN2C(CSC(=NC3CCCCC3)NC3CCCCC3)=CSC2=N1` [IT1t, reference compound], the pIC50 in assay [6] was 4.51. The IC50 with IL-1β was 38 µM; in the assay with IFN-γ, 24 µM; in the assay with TNF-α, 48 µM; in the assay on IL-10 it was 20 µM; in the assay on IL-12p70, 16 µM; with IL-18, 9.7 µM. Further, the IC50 in the assay with IL-23 was 14 µM. Besides, the “inhibition on other inflammatory cytokines such as MCP-1, IL-6, IL-8 and IL-33” value in assay [7] is reported as “no or poor inhibition”.

By pIC50 is commonly meant the IC50 on a negative log10 scale, so that one unit is a factor of ten. As a reminder, the IC50 is the concentration at which inhibition is half-maximal.

The values are drawn from patent US20220144853A1, “IMIDAZOLINE DERIVATIVES AS CXCR4 MODULATORS” (Université de Paris, priority 2019, published 2022).
